Results: patent US11484535B2, “Liquid formulations of (S)-N-(5-((R)-2-(2,5-difluorophenyl)-pyrrolidin-1-yl)-pyrazolo[1,5-a] pyrimidin-3-yl)-3-hydroxypyrrolidine-1-carboxamide” (Loxo Oncology, Inc., priority 2016, dated 2022)
Structures can show the parent of a compound that is named as a salt.

What was measured:
[1] = system: Infantile Fibrosarcoma with NTRK3-ETV6 Fusion; test: Phase 1 pediatric dose-escalation study (NCT02637687), oral liquid formulation of Compound I-HS, case of one patient
[2] = Accelerated stability study in an LDPE bag at 40° C./75% RH for five weeks; assay type: physicochemical
[3] = Dynamic vapor sorption (DVS) isotherm, hygroscopicity; assay type: physicochemical
Experimental: For the DVS measurement a sample of crystalline form (I-HS) was cycled through changing humidity conditions to determine its hygroscopicity. The sample was analyzed using a Surface Measurement System DVS-1 Dynamic Vapor Sorption System. […] Data was collected in 1 minute intervals. Nitrogen was used as the carrier gas. […] After completion of the sorption cycle, the sample was dried using the same procedure, but all the way down to 0% RH and finally taken back to the starting point of 20% RH. The weight change during the sorption/desorption cycles were plotted, allowing for the hygroscopic nature of the sample to be determined.
A small increase in mass of about 1.7% was observed between 0% and 90% RH during the sorption cycle.

| SMILES | reduction in the size and enhancement of the mass from baseline ([1]; MR of the brain and neck, end of cycle 1 (day 28), BID dosing, patient) | response on repeat scans ([1]; end of Cycle 2, MR of the brain and neck) | adverse events related to the compound ([1]; first two cycles (28-day cycles)) | change in chemical impurity levels [2] | hygroscopicity by DVS ([3]; 20-90% RH ramp, 10% increments) | change in crystalline form during DVS (XRPD post vs pre DVS) ([3]; XRPD after DVS analysis) |
| --- | --- | --- | --- | --- | --- | --- |
| O=C(Nc1cnn2ccc(N3CCC[C@@H]3c3cc(F)ccc3F)nc12)N1CC[C@H](O)C1 [Compound I-HS, (S)—N-(5-((R)-2-(2,5-difluorophenyl)-pyrrolidin-1-yl)-pyrazolo[1,5-a]pyrimidin-3-yl)-3-hydroxypyrrolidine-1-carboxamide hydrogen sulfate] | more than 90% | partial response | no adverse events | neither the AM(HS) or crystalline form (I-HS) exhibited a significant changes in chemical impurity levels | non-hygroscopic | no change |
| O=C(Nc1cnn2ccc(N3CCC[C@@H]3c3cc(F)ccc3F)nc12)N1CC[C@H](O)C1.O=S(=O)(O)O [AM(HS), (S)—N-(5-((R)-2-(2,5-difluorophenyl)-pyrrolidin-1-yl)-pyrazolo[1,5-a]pyrimidin-3-yl)-3-hydroxypyrrolidine-1-carboxamide hydrogen sulfate] |  |  |  | neither the AM(HS) or crystalline form (I-HS) exhibited a significant changes in chemical impurity levels |  |  |
